Reference: patent publication US11083196B2, “Microbiocidal oxadiazole derivatives” (SYNGENTA PARTICIPATIONS AG, priority 2016, dated 2021)

How the values were obtained:
[1] = system: Puccinia recondita f. sp. tritici; test: Fungicidal activity against Puccinia recondita f. sp. tritici / wheat / leaf disc preventative (brown rust); type: in vivo; details: foliar, 168 h, wheat leaf segments cv. Kanzler, inoculated 1 day after application, assessed 7-9 days after application, compared to untreated control
Experimental: Leaf disks or leaf segments of various plant species are cut from plants grown in a greenhouse. The cut leaf disks or segments are placed in multiwell plates (24-well format) onto water agar. The leaf disks are sprayed with a test solution before (preventative) or after (curative) inoculation. Compounds to be tested are prepared as DMSO solutions (max. 10 mg/ml) which are diluted to the appropriate concentration with 0.025% Tween20 just before spraying. The inoculated leaf disks or segments are incubated under defined conditions (temperature, relative humidity, light, etc.) according to the respective test system. A single evaluation of disease level is carried out 3 to 14 days after inoculation, depending on the pathosystem. Percent disease control relative to the untreated check leaf disks or segments is then calculated. Wheat leaf segments cv. Kanzler are placed on agar in multiwell plates (24-well format) and sprayed with the formulated test compound diluted in water. The leaf disks are inoculated with a spore suspension of the fungus 1 day after application. The inoculated leaf segments are incubated at 19° C. and 75% rh under a light regime of 12 h light/12 h darkness in a climate cabinet and the activity of a compound is assessed as percent disease control compared to untreated when an appropriate level of disease damage appears in untreated check leaf segments (7-9 days after application).

[2] = system: Glomerella lagenarium (Colletotrichum lagenarium); test: Fungicidal activity against Glomerella lagenarium (Colletotrichum lagenarium), liquid culture / cucumber / preventative (anthracnose); type: cell-based; details: Colletotrichum orbiculare, liquid culture (PDB), growth inhibition measured photometrically 3-4 days after application, compared to untreated control
Experimental: Mycelia fragments or conidia suspensions of a fungus, prepared either freshly from liquid cultures of the fungus or from cryogenic storage, are directly mixed into nutrient broth. DMSO solutions of the test compound (max. 10 mg/ml) is diluted with 0.025% Tween20 by a factor of 50 and 10 μl of this solution is pipetted into a microtiter plate (96-well format). The nutrient broth containing the fungal spores/mycelia fragments is then added to give an end concentration of the tested compound. The test plates are incubated in the dark at 24° C. and 96% relative humidity. The inhibition of fungal growth is determined photometrically after 2 to 7 days, depending on the pathosystem, and percent antifungal activity relative to the untreated check is calculated. Conidia of the fungus from cryogenic storage are directly mixed into nutrient broth (PDB potato dextrose broth). After placing a (DMSO) solution of test compound into a microtiter plate (96-well format), the nutrient broth containing the fungal spores is added. The test plates are incubated at 24° C. and the inhibition of growth is measured photometrically 3-4 days after application.

[3] = system: Puccinia recondita f. sp. tritici; test: Fungicidal activity against Puccinia recondita f. sp. tritici / wheat / leaf disc curative (brown rust); type: in vivo; details: foliar, 144 h, wheat leaf segments cv. Kanzler, applied 1 day after inoculation, assessed 6-8 days after application, compared to untreated control
Experimental: Leaf disks or leaf segments of various plant species are cut from plants grown in a greenhouse. The cut leaf disks or segments are placed in multiwell plates (24-well format) onto water agar. The leaf disks are sprayed with a test solution before (preventative) or after (curative) inoculation. Compounds to be tested are prepared as DMSO solutions (max. 10 mg/ml) which are diluted to the appropriate concentration with 0.025% Tween20 just before spraying. The inoculated leaf disks or segments are incubated under defined conditions (temperature, relative humidity, light, etc.) according to the respective test system. A single evaluation of disease level is carried out 3 to 14 days after inoculation, depending on the pathosystem. Percent disease control relative to the untreated check leaf disks or segments is then calculated. Wheat leaf segments cv. Kanzler are placed on agar in multiwell plates (24-well format). The leaf segments are inoculated with a spore suspension of the fungus. Plates are stored in darkness at 19° C. and 75% rh. The formulated test compound diluted in water is applied 1 day after inoculation. The leaf segments are incubated at 19° C. and 75% rh under a light regime of 12 h light/12 h darkness in a climate cabinet and the activity of a compound is assessed as percent disease control compared to untreated when an appropriate level of disease damage appears in untreated check leaf segments (6-8 days after application).

Compound	melting point [°C]	pest or weed control at 200 ppm [1] [%]	inhibition of growth at 20 ppm [2] [%]	pest or weed control at 200 ppm [3] [%]
FC(F)(F)c1nc(-c2ccc(-c3nc(CCl)cs3)cc2)no1 [Compound C-9, 3-[4-[4-(chloromethyl)thiazol-2-yl]phenyl]-5-(trifluoromethyl)-1,2,4-oxadiazole]	91 to 92	≥ 80	≥ 80	
COCC(=O)NC1CSC(c2ccc(-c3noc(C(F)(F)F)n3)c(F)c2)=N1 (stereo not shown) [Compound A-25, N-[2-[3-fluoro-4-[5-(trifluoromethyl)-1,2,4-oxadiazol-3-yl]phenyl]-4,5-dihydrothiazol-4-yl]-2-methoxy-acetamide]	141 to 175	≥ 80	≥ 80	
Nc1cccc(-c2ccc(-c3noc(C(F)(F)F)n3)cc2)n1 [Compound D-15, 6-[4-[5-(trifluoromethyl)-1,2,4-oxadiazol-3-yl]phenyl]pyridin-2-amine]	135 to 140	≥ 80	≥ 80	
Cc1csc(-c2ccc(-c3noc(C(F)(F)F)n3)cc2)n1 [Compound C-8, 3-[4-(4-methylthiazol-2-yl)phenyl]-5-(trifluoromethyl)-1,2,4-oxadiazole]	89 to 90		≥ 80	≥ 80
O=C(Nc1cc(-c2ccc(-c3noc(C(F)(F)F)n3)cc2)ccn1)C(F)(F)F [Compound D-19, 2,2,2-trifluoro-N-[4-[4-[5-(trifluoromethyl)-1,2,4-oxadiazol-3-yl]phenyl]-2-pyridyl]acetamide]	230 to 235	≥ 80	≥ 80	
FC(F)(F)c1nc(-c2ccc(-c3ncco3)cc2)no1 [Compound C-3, 3-(4-oxazol-2-ylphenyl)-5-(trifluoromethyl)-1,2,4-oxadiazole]	94 to 97	≥ 80		≥ 80
Cc1cc(-c2ccc(-c3noc(C(F)(F)F)n3)cc2)on1 [Compound C-11, 3-[4-(3-methylisoxazol-5-yl)phenyl]-5-(trifluoromethyl)-1,2,4-oxadiazole]		≥ 80		≥ 80
O=C(NC1CSC(c2ccc(-c3noc(C(F)(F)F)n3)c(F)c2)=N1)C1CC1 (stereo not shown) [Compound A-22, N-[2-[3-fluoro-4-[5-(trifluoromethyl)-1,2,4-oxadiazol-3-yl]phenyl]-4,5-dihydrothiazol-4-yl]cyclopropanecarboxamide]			≥ 80	≥ 80
Cc1ccccc1C(=O)NC1CSC(c2ccc(-c3noc(C(F)(F)F)n3)c(F)c2)=N1 (stereo not shown) [Compound A-23, N-[2-[3-fluoro-4-[5-(trifluoromethyl)-1,2,4-oxadiazol-3-yl]phenyl]-4,5-dihydrothiazol-4-yl]-2-methyl-benzamids]	144 to 155	≥ 80	≥ 80	
COC(=O)C1CC(c2ccc(-c3noc(C(F)(F)F)n3)cc2)=NO1 (stereo not shown) [Compound A-8, methyl 3-[4-[5-(trifluoromethyl)-1,2,4-oxadiazol-3-yl]phenyl]-4,5-dihydroisoxazole-5-carboxylate]		≥ 80	≥ 80	
COC(=O)N1CCCC1c1ccc(-c2noc(C(F)(F)F)n2)cc1 (stereo not shown) [Compound A-32, methyl 2-[4-[5-(trifluoromethyl)-1,2,4-oxadiazol-3-yl]phenyl]pyrrolidine-1-carboxylate]			≥ 80	≥ 80
CCC(=O)N1CCCC1c1ccc(-c2noc(C(F)(F)F)n2)cc1 (stereo not shown) [Compound A-37, 1-[2-[4-[5-(trifluoromethyl)-1,2,4-oxadiazol-3-yl]phenyl]pyrrolidin-1-yl]propan-1-one]			≥ 80	≥ 80
